Here are results for two compounds from patent publication US10392338B2, “Spirofuranone compounds, derivatives thereof and processes for their preparation” (Yissum Research Development Company of The Hebrew …, priority 2015, dated 2019).

Each structure is given as a SMILES string. “Also recorded” adds a separate entry of the source.

One test deals with rTRPV1(Y511G) (Rattus norvegicus, UniProt O35433, Y511G). To be noted: 300 μM; VBS domain mutated.
For test [1], the system named is small-diameter (C-fiber) rat TG neurons. The test can be described thus: Current-clamp whole-cell recording of membrane potential in dissociated TG sensory neurons. Type of test: cell-based. To be noted: capsaicin 0.2 μM; current clamp I=0; P2 rat TG neurons. An excerpt: In dissociated sensory neurons from the trigeminal ganglion (TG) of P2 rat, the inventors have recorded the membrane potential following the application of the different molecules, using current-clamp mode in the whole-cell configuration. […] In contrast, the compound of the invention have evoked slow (in comparison to capsaicin), ˜20 mV depolarization, with no action potential firing (FIG. 16E, upper trace).

Chain of rTRPV1(Y511G) (O35433 whole entry Y511G, the tested form may be a part): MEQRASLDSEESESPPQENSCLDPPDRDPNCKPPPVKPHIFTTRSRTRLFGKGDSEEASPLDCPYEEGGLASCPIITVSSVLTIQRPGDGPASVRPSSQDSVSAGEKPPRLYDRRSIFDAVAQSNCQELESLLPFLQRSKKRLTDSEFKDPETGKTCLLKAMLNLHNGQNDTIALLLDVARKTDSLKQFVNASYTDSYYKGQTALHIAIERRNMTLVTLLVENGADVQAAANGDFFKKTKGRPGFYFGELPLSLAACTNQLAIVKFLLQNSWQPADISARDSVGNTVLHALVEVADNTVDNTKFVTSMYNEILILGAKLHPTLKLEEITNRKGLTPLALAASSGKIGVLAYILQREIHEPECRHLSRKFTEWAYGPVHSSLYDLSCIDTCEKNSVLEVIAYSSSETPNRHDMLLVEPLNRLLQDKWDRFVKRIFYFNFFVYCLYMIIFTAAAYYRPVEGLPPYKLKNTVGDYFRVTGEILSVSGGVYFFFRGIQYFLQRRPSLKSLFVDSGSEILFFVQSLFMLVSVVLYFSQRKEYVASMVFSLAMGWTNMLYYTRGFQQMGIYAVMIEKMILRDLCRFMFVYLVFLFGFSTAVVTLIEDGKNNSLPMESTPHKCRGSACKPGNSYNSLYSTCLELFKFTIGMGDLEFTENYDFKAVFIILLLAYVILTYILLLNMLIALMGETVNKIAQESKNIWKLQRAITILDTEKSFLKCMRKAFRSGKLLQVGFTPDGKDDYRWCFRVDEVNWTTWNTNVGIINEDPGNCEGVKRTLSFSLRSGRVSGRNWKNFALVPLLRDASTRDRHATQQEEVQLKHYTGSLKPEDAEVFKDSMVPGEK
Experimental for rTRPV1(Y511G): Averaged (n=30 cells) ratiometric calcium responses of HEK293T cells expressing rat TRPV1 (rTRPV1), as a function of time. Application of different SAVA (as indicated; 300 μM; yellow bar) was followed by capsaicin (CAP; 5 μM; red bar). […] Same as B, but recorded from HEK293T cells expressing rTRPV1(Y511G) in which VBS domain is mutated. […] D. Superimposed capsaicin-(1 μM; grey line) and SAVA-(compound 6 in B; 300 μM; black line)-induced currents (Vholding=−40 mV) recorded in whole cell configuration from HEK293T cells expressing the rTRPV1. Recording were done on cells with similar TRPV1 expressing levels (determined by the initial response to pH 5.5). […] E. Current-clamp recording (I=0) in the whole cell configuration from small-diameter (C-fiber) rat TG neurons (P2 old pup).
To verify, that the evoked response of our TRPV1-positive compounds is through the Vanilloid-binding site (VBS), we analyzed their activation profile on TRPV1(Y511 G) construct.
Next, the new scaffolds-evoked TRPV1 currents were analyzed using the voltage-clamp whole-cell configuration of the patch-clamp technique on HEK293T cells stably transfected with the rTRPV1 gene.

As to `NCCOB(c1ccccc1)c1ccccc1` [2-APB, 2-aminoethoxydiphenyl borate], the “calcium response of cells expressing mutant rTRPV1(Y511G)” value on rTRPV1(Y511G) was “responded”. On to `COc1cc(CNC(=O)CCCC/C=C/C(C)C)ccc1O` [capsaicin, Capsaicin], for which, in test [1], the “depolarization and action potential firing” value was “pronounced depolarization and burst of action potentials, followed by depolarization block; also recorded: robust depolarization with burst of action potentials followed by depolarization block”.
